According to patent US20240158446A1, “CYCLIC COMPOUND HAVING SELECTIVE INHIBITORY ACTION ON KRAS OVER HRAS AND NRAS” (CHUGAI SEIYAKU KABUSHIKI KAISHA, priority 2021, published 2024):

Legend:
[1] = target: GDP-bound NRAS wild-type protein (Homo sapiens, UniProt P01111); assay: Binding to NRAS by surface plasmon resonance (SPR), Single Cycle Kinetics; conditions: SPR, GDP-bound NRAS wild-type protein vs GDP-bound KRAS wild-type protein
[2] = target: GDP-bound HRAS wild-type protein (Homo sapiens, UniProt P01112); assay: Binding to HRAS by surface plasmon resonance (SPR), Single Cycle Kinetics; conditions: SPR, GDP-bound HRAS wild-type protein vs GDP-bound KRAS wild-type protein
[3] = target: GDP-bound KRAS wild-type protein (Homo sapiens, UniProt P01116); assay: Binding to KRAS by surface plasmon resonance (SPR), Single Cycle Kinetics; conditions: SPR, Single Cycle Kinetics, GDP-bound KRAS wild-type protein; read-out: KRAS KD
Sequence of GDP-bound KRAS wild-type protein (P01116 whole entry): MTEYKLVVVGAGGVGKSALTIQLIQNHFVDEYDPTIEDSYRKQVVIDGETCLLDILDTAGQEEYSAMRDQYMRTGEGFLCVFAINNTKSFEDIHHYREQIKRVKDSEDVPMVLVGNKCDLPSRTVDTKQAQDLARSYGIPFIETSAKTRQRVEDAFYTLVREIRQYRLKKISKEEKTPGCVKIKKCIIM

Sequence of GDP-bound NRAS wild-type protein (P01111 whole entry): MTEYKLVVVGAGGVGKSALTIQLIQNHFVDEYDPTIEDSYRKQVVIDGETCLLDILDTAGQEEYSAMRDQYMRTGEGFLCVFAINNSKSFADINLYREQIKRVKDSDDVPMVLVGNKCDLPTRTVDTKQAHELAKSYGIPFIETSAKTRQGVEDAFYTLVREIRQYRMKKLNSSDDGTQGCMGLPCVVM
Sequence of GDP-bound HRAS wild-type protein (P01112 whole entry): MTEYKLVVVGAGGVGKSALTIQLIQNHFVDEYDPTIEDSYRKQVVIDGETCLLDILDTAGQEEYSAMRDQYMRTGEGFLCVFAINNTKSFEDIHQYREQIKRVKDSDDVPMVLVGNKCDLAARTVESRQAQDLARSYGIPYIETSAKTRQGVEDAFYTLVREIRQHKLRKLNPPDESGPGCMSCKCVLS

CCOC[C@H]1C(=O)N[C@@H]([C@@H](C)CC)C(=O)N(C)CC(=O)N(C)[C@H]2C/C=C\CCN(C2=O)[C@@H](Cc2ccc(C(F)(F)F)cc2)C(=O)N(C)CC(=O)N[C@@H](CCc2cc(F)c(C(F)(F)F)c(F)c2)C(=O)N2C[C@@H](C)C[C@H]2C(=O)NC2(CC(C)(C)C2)C(=O)N(C)[C@@H](C2CCCC2)C(=O)N(C)[C@H](C(=O)N(C)CC)CC(=O)N1C [PP2042]
NRAS/KRAS (ratio of KD value for NRAS to KD value for KRAS) [1]: A (a compound having 10 or more and less than 20 is denoted as A) | HRAS/KRAS (ratio of KD value for HRAS to KD value for KRAS) [2]: A (a compound having 10 or more and less than 20 is denoted as A) | Kd [3]: 140 pM

CCCOC[C@H]1C(=O)N[C@@H]([C@@H](C)CC)C(=O)N(C)CC(=O)N(C)[C@H]2C/C=C\CCN(C2=O)[C@@H](Cc2ccc(C(F)(F)F)cc2)C(=O)N(C)CC(=O)N[C@@H](CCc2cc(F)c(C(F)(F)F)c(F)c2)C(=O)N2C[C@@H](C)C[C@H]2C(=O)NC2(CC(C)(C)C2)C(=O)N(C)[C@@H](C2CCCC2)C(=O)N(C)[C@H](C(=O)N(C)CC)CC(=O)N1C [PP2043]
NRAS/KRAS (ratio of KD value for NRAS to KD value for KRAS) [1]: A (a compound having 10 or more and less than 20 is denoted as A) | HRAS/KRAS (ratio of KD value for HRAS to KD value for KRAS) [2]: A (a compound having 10 or more and less than 20 is denoted as A) | Kd [3]: 210 pM

CCO[C@@H]1C[C@H]2C(=O)NC3(CC(C)(C)C3)C(=O)N(C)[C@@H](C3CCCC3)C(=O)N(C)[C@H](C(=O)N(C)CC)CC(=O)N(C)[C@@H](CC(C)C)C(=O)N[C@@H]([C@@H](C)CC)C(=O)N(C)CC(=O)N(C)[C@H]3C/C=C\CCN(C3=O)[C@@H](Cc3ccc(C(F)F)cc3)C(=O)N(C)CC(=O)N[C@@H](CCc3cc(F)c(C(F)(F)F)c(F)c3)C(=O)N2C1 [PP2046]
NRAS/KRAS (ratio of KD value for NRAS to KD value for KRAS) [1]: A (a compound having 10 or more and less than 20 is denoted as A) | HRAS/KRAS (ratio of KD value for HRAS to KD value for KRAS) [2]: A (a compound having 10 or more and less than 20 is denoted as A) | Kd [3]: 63 pM

CCO[C@@H]1C[C@H]2C(=O)NC3(CC(C)(C)C3)C(=O)N(C)[C@@H](C3CCCC3)C(=O)N(C)[C@H](C(=O)N(C)C)CC(=O)N(C)[C@@H](CC)C(=O)N[C@@H]([C@@H](C)CC)C(=O)N(C)CC(=O)N(C)[C@H]3C/C=C\CCN(C3=O)[C@@H](Cc3ccc(Cl)cc3F)C(=O)N(C)CC(=O)N[C@@H](CCc3cc(F)c(C(F)(F)F)c(F)c3)C(=O)N2C1 [PP2048]
NRAS/KRAS (ratio of KD value for NRAS to KD value for KRAS) [1]: A (a compound having 10 or more and less than 20 is denoted as A) | HRAS/KRAS (ratio of KD value for HRAS to KD value for KRAS) [2]: B (a compound having 3 or more and less than 10 is denoted as B) | Kd [3]: 71 pM

CCO[C@@H]1C[C@H]2C(=O)NC3(CC(C)(C)C3)C(=O)N(C)[C@@H](C3CCCC3)C(=O)N(C)[C@H](C(=O)N(C)C)CC(=O)N(C)[C@@H](CC)C(=O)N[C@@H]([C@@H](C)CC)C(=O)N(C)CC(=O)N(C)[C@H]3C/C=C\CCN(C3=O)[C@@H](Cc3ccc(C(F)F)cc3)C(=O)N(C)CC(=O)N[C@@H](CCc3cc(F)c(C(F)(F)F)c(F)c3)C(=O)N2C1 [PP2049]
NRAS/KRAS (ratio of KD value for NRAS to KD value for KRAS) [1]: A (a compound having 10 or more and less than 20 is denoted as A) | HRAS/KRAS (ratio of KD value for HRAS to KD value for KRAS) [2]: B (a compound having 3 or more and less than 10 is denoted as B) | Kd [3]: 40 pM

C=CCN1CC(=O)N(C)[C@H]2C/C=C\CCN(C2=O)[C@@H](Cc2ccc(C)cc2)C(=O)N(C)CC(=O)N[C@@H](CCc2cc(F)c(C(F)(F)F)c(F)c2)C(=O)N2C[C@H](OCC)C[C@H]2C(=O)NC2(CC(C)(C)C2)C(=O)N(C)[C@@H](C2CCCC2)C(=O)N(C)[C@H](C(=O)N(C)C)CC(=O)N(C)[C@@H](CC(C)C)C(=O)N[C@@H]([C@@H](C)CC)C1=O [PP2050]
NRAS/KRAS (ratio of KD value for NRAS to KD value for KRAS) [1]: A (a compound having 10 or more and less than 20 is denoted as A) | HRAS/KRAS (ratio of KD value for HRAS to KD value for KRAS) [2]: A (a compound having 10 or more and less than 20 is denoted as A) | Kd [3]: 190 pM

C#CC[C@H]1C(=O)N[C@@H]([C@@H](C)CC)C(=O)N(C)CC(=O)N(C)[C@H]2C/C=C\CCN(C2=O)[C@@H](Cc2ccc(C(F)(F)F)cc2)C(=O)N(C)CC(=O)N[C@@H](CCc2ccc(C(F)(F)F)c(OC)c2)C(=O)N2C[C@H](OCC)C[C@H]2C(=O)NC2(CC(C)(C)C2)C(=O)N(C)[C@@H](C2CCCC2)C(=O)N(C)[C@H](C(=O)N(C)CC)CC(=O)N1C [PP2051]
NRAS/KRAS (ratio of KD value for NRAS to KD value for KRAS) [1]: A (a compound having 10 or more and less than 20 is denoted as A) | HRAS/KRAS (ratio of KD value for HRAS to KD value for KRAS) [2]: A (a compound having 10 or more and less than 20 is denoted as A) | Kd [3]: 120 pM

C#CCN1CC(=O)N(C)[C@H]2C/C=C\CCN(C2=O)[C@@H](Cc2ccc(C)cc2)C(=O)N(C)CC(=O)N[C@@H](CCc2cc(F)c(C(F)(F)F)c(F)c2)C(=O)N2C[C@H](OCC)C[C@H]2C(=O)NC2(CC(C)(C)C2)C(=O)N(C)[C@@H](C2CCCC2)C(=O)N(C)[C@H](C(=O)N(C)C)CC(=O)N(C)[C@@H](CC(C)C)C(=O)N[C@@H]([C@@H](C)CC)C1=O [PP2052]
NRAS/KRAS (ratio of KD value for NRAS to KD value for KRAS) [1]: A (a compound having 10 or more and less than 20 is denoted as A) | HRAS/KRAS (ratio of KD value for HRAS to KD value for KRAS) [2]: A (a compound having 10 or more and less than 20 is denoted as A) | Kd [3]: 160 pM

C#CC[C@H]1C(=O)N[C@@H]([C@@H](C)CC)C(=O)N(C)CC(=O)N(C)[C@H]2C/C=C\CCN(C2=O)[C@@H](Cc2ccc(C(F)(F)F)cc2)C(=O)N(C)CC(=O)N[C@@H](CCc2ccc(C(F)(F)F)c(OC)c2)C(=O)N2C[C@H](OCC)C[C@H]2C(=O)NC2(CC(C)(C)C2)C(=O)N(C)[C@@H](C2CCCC2)C(=O)N(C)[C@H](C(=O)N(C)CCC)CC(=O)N1C [PP2053]
NRAS/KRAS (ratio of KD value for NRAS to KD value for KRAS) [1]: A (a compound having 10 or more and less than 20 is denoted as A) | HRAS/KRAS (ratio of KD value for HRAS to KD value for KRAS) [2]: A (a compound having 10 or more and less than 20 is denoted as A) | Kd [3]: 130 pM

C#CC[C@H]1C(=O)N[C@@H]([C@@H](C)CC)C(=O)N(C)CC(=O)N(C)[C@H]2C/C=C\CCN(C2=O)[C@@H](Cc2ccc(C(F)(F)F)cc2)C(=O)N(C)CC(=O)N[C@@H](CCc2ccc(C(F)(F)F)c(OC)c2)C(=O)N2C[C@@H](C)C[C@H]2C(=O)NC2(CC(C)(C)C2)C(=O)N(C)[C@@H](C2CCCC2)C(=O)N(C)[C@H](C(=O)N(C)CC)CC(=O)N1C [PP2055]
NRAS/KRAS (ratio of KD value for NRAS to KD value for KRAS) [1]: A (a compound having 10 or more and less than 20 is denoted as A) | HRAS/KRAS (ratio of KD value for HRAS to KD value for KRAS) [2]: B (a compound having 3 or more and less than 10 is denoted as B) | Kd [3]: 180 pM

C#CC[C@H]1C(=O)N[C@@H]([C@@H](C)CC)C(=O)N(C)CC(=O)N(C)[C@H]2C/C=C\CCN(C2=O)[C@@H](Cc2ccc(C(F)(F)F)cc2)C(=O)N(C)CC(=O)N[C@@H](CCc2ccc(C(F)(F)F)c(OC)c2)C(=O)N2C[C@H](OCC)C[C@H]2C(=O)NC2(CCC2)C(=O)N(C)[C@@H](C2CCCC2)C(=O)N(C)[C@H](C(=O)N(C)CCC)CC(=O)N1C [PP2059]
NRAS/KRAS (ratio of KD value for NRAS to KD value for KRAS) [1]: A (a compound having 10 or more and less than 20 is denoted as A) | HRAS/KRAS (ratio of KD value for HRAS to KD value for KRAS) [2]: A (a compound having 10 or more and less than 20 is denoted as A) | Kd [3]: 93 pM

C#CC[C@H]1C(=O)N[C@@H]([C@@H](C)CC)C(=O)N(C)CC(=O)N(C)[C@H]2C/C=C\CCN(C2=O)[C@@H](Cc2ccc(C(F)(F)F)cc2)C(=O)N(C)CC(=O)N[C@@H](CCc2ccc(C(F)(F)F)c(OC)c2)C(=O)N2C[C@@H](C)C[C@H]2C(=O)NC2(CCC2)C(=O)N(C)[C@@H](C2CCCC2)C(=O)N(C)[C@H](C(=O)N(C)CC)CC(=O)N1C [PP2061]
NRAS/KRAS (ratio of KD value for NRAS to KD value for KRAS) [1]: AA (a compound having 20 or more is denoted as AA) | HRAS/KRAS (ratio of KD value for HRAS to KD value for KRAS) [2]: A (a compound having 10 or more and less than 20 is denoted as A) | Kd [3]: 75 pM

CCO[C@@H]1C[C@H]2C(=O)NC3(CC(C)(C)C3)C(=O)N(C)[C@@H](C(CC)CC)C(=O)N(C)[C@H](C(=O)N(C)C)CC(=O)N(C)[C@@H](CC)C(=O)N[C@@H]([C@@H](C)CC)C(=O)N(C)CC(=O)N(C)[C@H]3C/C=C\CCN(C3=O)[C@@H](Cc3ccc(C(F)(F)F)cc3)C(=O)N(C)CC(=O)N[C@@H](CCc3cc(F)c(C(F)(F)F)c(F)c3)C(=O)N2C1 [PP2062]
NRAS/KRAS (ratio of KD value for NRAS to KD value for KRAS) [1]: AA (a compound having 20 or more is denoted as AA) | HRAS/KRAS (ratio of KD value for HRAS to KD value for KRAS) [2]: A (a compound having 10 or more and less than 20 is denoted as A) | Kd [3]: 190 pM

CC[C@H](C)[C@@H]1NC(=O)[C@H](C(C)C)N(C)C(=O)C[C@@H](C(=O)N(C)CC)N(C)C(=O)[C@H](C2CCCC2)N(C)C(=O)C2(CCC2)NC(=O)[C@@H]2C[C@H](C)CN2C(=O)[C@H](CCc2ccc(C(F)(F)F)c(OC)c2)NC(=O)CN(C)C(=O)[C@H](Cc2ccc(C(F)(F)F)cc2)N2CC/C=C\C[C@@H](C2=O)N(C)C(=O)CN(C)C1=O [PP2065]
NRAS/KRAS (ratio of KD value for NRAS to KD value for KRAS) [1]: A (a compound having 10 or more and less than 20 is denoted as A) | HRAS/KRAS (ratio of KD value for HRAS to KD value for KRAS) [2]: B (a compound having 3 or more and less than 10 is denoted as B) | Kd [3]: 220 pM

CCO[C@@H]1C[C@H]2C(=O)NC3(CC(C)(C)C3)C(=O)N(C)[C@@H](C(CC)CC)C(=O)N(C)[C@H](C(=O)N(C)C)CC(=O)N(C)[C@@H](CC)C(=O)N[C@@H]([C@@H](C)CC)C(=O)N(C)CC(=O)N(C)[C@H]3C/C=C\CCN(C3=O)[C@@H](Cc3ccc(C(F)(F)F)cc3)C(=O)N(C)CC(=O)N[C@@H](CCc3ccc(C(F)(F)F)c(OC)c3)C(=O)N2C1 [PP2066]
NRAS/KRAS (ratio of KD value for NRAS to KD value for KRAS) [1]: A (a compound having 10 or more and less than 20 is denoted as A) | HRAS/KRAS (ratio of KD value for HRAS to KD value for KRAS) [2]: B (a compound having 3 or more and less than 10 is denoted as B) | Kd [3]: 250 pM
